{"source": "paper PMC8333053", "about": "“Synthesis and biological screening of new thiadiazolopyrimidine-based polycyclic compounds” (Scientific Reports, 2021)", "key": {"Candida albicans": {"test_system": "Candida albicans", "assay": "Antifungal MIC, two-fold serial dilution", "format": "cell-based", "details": "Fungi, glucose minimal medium, 30°C, 48 h, visual (no turbidity)", "experimental": "(§1) The antimicrobial activity of the synthesized thiadiazolopyrimidine compounds was studied toward diverse pathogenic strains, such as gram-positive bacteria (Staphylococcus aureus ATCC 29213 and Bacillus cereus UW85), gram-negative bacteria (Escherichia coli ATCC 12435 and Pseudomonas aeruginosa ATCC 29260), and fungi (Candida albicans and Aspergillus fumigatus 293). The assessment was performed through the two-fold dilution technique using Ampicillin (antibacterial) and Fluconazole (antifungal) as the reference drugs[28],[29]. The minimal inhibitory concentration (MICs, µg/mL) of the synthesized derivatives for prohibiting microbial growth was determined through the visual detection (no turbidity) technique.\n(§2) The synthesized thiadiazolopyrimidine-based compounds were evaluated and adopted for antibacterial and antifungal effectiveness using the approved procedure[38],[39].\n(§3) Minimal inhibitory concentrations (MICs) were determined by serial dilution technique using 96-multiwell microtiter plates. The investigated compounds were dissolved in DMSO 100% to prepare stock solutions of 5000 µg/mL. Two-fold serial dilutions of the dissolved compounds were performed in glucose minimal medium providing eight different concentrations (1250, 625, 312.5, 156, 78, 39, 19.5 µg/mL). The microorganisms were diluted to 1 ×10^3 SFU/mL in glucose minimal medium, and 20 µL of the diluted culture was added to the test solutions (50 µL) in the wells (one well per concentration). The plates were incubated at 30°C for 48 h. MIC was detected visually as the least concentration inhibiting fungal growth (no turbidity) and the activity of the tested compounds was estimated in comparison to fluconazole."}, "[1]": {"test_system": "Aspergillus fumigatus 293", "assay": "Antifungal MIC, two-fold serial dilution", "format": "cell-based", "details": "Fungi, glucose minimal medium, 30°C, 48 h, visual (no turbidity)", "experimental": "as §1, §2, §3"}, "DNA": {"test_system": "DNA", "assay": "Bleomycin-dependent DNA damage", "format": "biochemical", "details": "test sample 0.1 mg/mL, λ = 532 nm; mean of three replicates ± SD; ascorbic acid 0.24 mM", "excerpt": "Bleomycin-dependent DNA damage. The prepared polycyclic thiadiazolopyrimidine-based compounds were examined through the bleomycin-dependant DNA damage, and the results were compared to that of ascorbic acid as a positive control. The obtained data reflected the ability of these derivatives to protect the DNA from damage. The capability of compounds 16a–b and 17a–b to manifest the best protective effect against DNA damage was indicated by the corresponding absorbance values ranging from 0.031 to 0.053 (Table 4)[35],[36].\nBleomycin-dependent DNA damage experiment: To a mixture of 0.5 mg / mL of DNA, 5 mM magnesium chloride, 50 mM ferric chloride and 0.05 mg / mL bleomycin sulfate was prepared. The test sample was prepared at a concentration of 0.1 mg / mL and added to the mixture. After incubation of the mixture for one hour at 37 °C, 0.05 mL of EDTA (0.1 M) was added to terminate the reaction. In the next step, 0.5 mL of TBA (1% w / v) and 0.5 mL of HCl (25% v / v) were added for colour development and the mixture was heated for 10 minutes at 80 °C. The mixture was centrifuged and the absorbance expressed, the amount of damage to the DNA was measured at λ = 532 nm. L-Ascorbic acid (0.24 mM) was used as a positive control."}, "[2]": {"test_system": "Staphylococcus aureus ATCC 29213", "assay": "Antibacterial MIC, two-fold serial dilution", "format": "cell-based", "details": "ATCC29213, Gram +ve bacteria, LB broth, 37°C, 24 h, visual (no turbidity), read-out: MIC S. aureus", "experimental": "as §1, §2\n(§4) Minimal inhibitory concentrations (MICs) were determined by serial dilution technique using 96-multiwell microtiter plates. The investigated compounds were dissolved in DMSO 100% to prepare stock solutions of 5000 µg/mL. Two-fold serial dilutions of the dissolved compounds were performed in LB broth providing eight different concentrations (1250, 625, 312.5, 156, 78, 39, 19.5 µg/mL). Overnight cultures of microorganisms were diluted to 1 ×10^6 CFU/mL in LB broth, and 20 mL of the diluted cultures were added to the test solutions (50 mL) in the wells (one well per concentration per bacterial strain). The plates were incubated at 37°C for 24 h. MIC was detected visually as the least concentration inhibiting bacterial growth (no turbidity) and the activity of the tested compounds was estimated in comparison to ampicillin."}, "Bacillus cereus UW85": {"test_system": "Bacillus cereus UW85", "assay": "Antibacterial MIC, two-fold serial dilution", "format": "cell-based", "details": "Gram +ve bacteria, LB broth, 37°C, 24 h, visual (no turbidity), read-out: MIC B. cereus", "experimental": "as §1, §2, §4"}, "[3]": {"test_system": "Escherichia coli ATCC 12435", "assay": "Antibacterial MIC, two-fold serial dilution", "format": "cell-based", "details": "ATCC12435, Gram −ve bacteria, LB broth, 37°C, 24 h, visual (no turbidity)", "experimental": "as §1, §2, §4"}, "[4]": {"test_system": "Pseudomonas aeruginosa ATCC 29260", "assay": "Antibacterial MIC, two-fold serial dilution", "format": "cell-based", "details": "ATCC29260, Gram −ve bacteria, LB broth, 37°C, 24 h, visual (no turbidity), read-out: MIC P. aeruginosa", "experimental": "as §1, §2, §4"}, "[5]": {"test_system": "Chromobacterium violaceum (ATCC 12472)", "assay": "Antiquorum-sensing assay (violacein pigment inhibition)", "format": "cell-based", "details": "5 mg/mL, 50 µL per well, 30°C, 48 h; QS inhibition = r2 − r1", "excerpt": "The synthesized thiadiazolopyrimidine-based compounds were screened for their antiquorum-sensing (anti-QS) inhibition activity by the Chromobacterium violaceum (ATCC 12472) technique using catechin as the standard compound[28]–[30]. The QS technique of C. violaceum was remarked by the detection of violacein (violet pigment)[31],[32]. Meanwhile, the reactivity of the synthesized thiadiazolopyrimidine-containing derivatives as drugs depends on their efficiency to inhibit the liberation of violacein during the QS technique. The QS inhibition was determined by the following equation: QS inhibition (mm) = (r2 − r1), where r1 is the inhibition radius of the bacterial growth and r2 is the inhibition radius for growth as well as the release of the pigment.\nThe anti-QS inefficiency was evaluated using the previous technique mentioned in the literature.\nThe culture was prepared by growing Ch. violaceum ATCC 12472 in LB broth and incubated for 16–18 h in an orbital incubator running at 28°C and 150 rpm. The culture was then adjusted to 0.5 McFarland standard (ca. 1 × 10^6 CFU/mL). Ch. violaceum (50 µL) was inoculated into LB agar (50 mL), poured into plates, and solidified. Wells were made in LB agar medium using cork borer. The tested compounds were dissolved in DMSO 100% in Eppendorf tubes for final concentration of 5 mg/mL, and 50 µL of the test solution was applied into the wells. The positive control (catechin) was also added at the same concentration and volume to each plate. In addition, DMSO (control solvent) was added to each plate. […] Bacterial growth inhibition by the tested compounds was measured as radius (r1) in mm, while both growth and pigment inhibition was measured as radius (r2) in mm. The pigment inhibition (QS inhibition) was determined by subtracting bacterial growth inhibition (r1) from the total radius (r2); thus, QS inhibition = (r2 - r1) in mm."}, "[6]": {"assay": "MTT cytotoxicity assay on normal cells", "format": "cell-based", "details": "human, WI38 normal fibroblast cells", "experimental": "(§5) The cytotoxicity of the prepared tri-and tetra-cyclic thiadiazolopyrimidine compounds were examined toward various cancer cell lines, such as liver and breast cancer (MCF-7), prostate cancer (PC3), laryngeal carcinoma (Hep-2), carcinoma (HepG2), and standard normal fibroblast cells (WI38) using the MTT assay[33] at the National Research Centre (Egypt). The cytotoxicity (Table 3) toward 50% inhibition of the cell viability (IC50 values) was assessed using 5-fluorouracil (5-Fu) as the standard anticancer drug.\n(§6) The synthesized compounds were subjected to the MTT cytotoxicity assay on the basis of the cited literature.\n(§7) MTT cytotoxicity assay: The technical method of MTT assay depends on the reduction of yellow 3-(4,5-methyl-2-thiazolyl)-2,5-diphenyl-2H-tetrazolium bromide (MTT) into purple formazan product, mainly by mitochondrial reductase activity inside the living cells. The cells used in cytotoxicity assay were cultured in RPMI 1640 medium supplemented with 10% fetal calf serum. Cells suspended in the medium (2×10^4 cells/mL) were plated in 96-well culture plates and incubated at 37 °C in a 5% CO2 incubator for 12 hours. The tested sample (2 μL) was added to the cells (2×10^4) in 96-well plates and cultured at 37 °C for 3 days. The cultured cells were mixed with 20 μL of MTT solution and incubated for 4 hours at 37 °C. The supernatant was carefully removed from each well, the formazan crystals were dissolved after addition of DMSO (100 μL) for each well to form the cellular reduction of MTT. After mixing with a mechanical plate mixer, the absorbance of each well was measured by a microplate reader using a test wavelength of 570 nm. The results were expressed as the IC50 values, which inducing 50% inhibition of cell growth of the treated cells when compared to the growth of control cells."}, "HepG2": {"test_system": "HepG2", "assay": "MTT cytotoxicity assay", "format": "cell-based", "details": "Homo sapiens, HepG2, 72 h, 3 days", "experimental": "as §5, §6, §7"}, "Hep-2": {"test_system": "Hep-2", "assay": "MTT cytotoxicity assay", "format": "cell-based", "details": "Homo sapiens, HEp-2, 72 h, 3 days", "experimental": "as §5, §6, §7"}, "PC3": {"test_system": "PC3", "assay": "MTT cytotoxicity assay", "format": "cell-based", "details": "Homo sapiens, PC-3, 72 h, 3 days", "experimental": "as §5, §6, §7"}, "MCF-7": {"test_system": "MCF-7", "assay": "MTT cytotoxicity assay", "format": "cell-based", "details": "Homo sapiens, MCF7, 72 h, 3 days", "experimental": "as §5, §6, §7"}}, "data": [{"smiles": "OC(Cn1cncn1)(Cn1cncn1)c1ccc(F)cc1F", "note": "[Fluconazole, reference compound]", "values": [{"measurement": "MIC", "setting": "Candida albicans", "value": "> 1250", "unit": "µg/mL"}, {"measurement": "MIC", "setting": "[1]", "value": "> 1250", "unit": "µg/mL"}]}, {"smiles": "O=C1O[C@H]([C@@H](O)CO)C(O)=C1O", "note": "[Ascorbic acid, L-Ascorbic acid, reference compound]", "values": [{"measurement": "Absorbance (bleomycin-dependent DNA damage)", "setting": "DNA", "value": "0.060 ± 0.02"}]}, {"smiles": "CC1(C)S[C@@H]2[C@H](NC(=O)[C@H](N)c3ccccc3)C(=O)N2[C@H]1C(=O)O", "note": "[Ampicillin, reference compound]", "values": [{"measurement": "MIC", "setting": "[2]", "value": "> 1250", "unit": "µg/mL"}, {"measurement": "MIC", "setting": "Bacillus cereus UW85", "value": 1250, "unit": "µg/mL"}, {"measurement": "MIC", "setting": "[3]", "value": 19.5, "unit": "µg/mL"}, {"measurement": "MIC", "setting": "[4]", "value": 78, "unit": "µg/mL"}]}, {"smiles": "O.Oc1cc(O)c2c(c1)O[C@H](c1ccc(O)c(O)c1)[C@@H](O)C2", "note": "[Catechin, catechin, reference compound]", "values": [{"measurement": "Diameter of quorum-sensing inhibition C. violaceum", "setting": "[5]", "value": 2, "unit": "mm"}]}, {"smiles": "O=c1[nH]cc(F)c(=O)[nH]1", "note": "[Compound 5-Fu, 5-Fluorouracil, reference compound]", "values": [{"measurement": "IC50 at 3 days", "setting": "[6]", "value": "10.3 ± 0.62", "unit": "µM"}, {"measurement": "IC50", "setting": "HepG2", "value": "7.2 ± 0.45", "unit": "µM"}, {"measurement": "IC50", "setting": "Hep-2", "value": "5.35 ± 0.23", "unit": "µM"}, {"measurement": "IC50", "setting": "PC3", "value": "8.78 ± 0.6", "unit": "µM"}, {"measurement": "IC50", "setting": "MCF-7", "value": "5.58 ± 0.31", "unit": "µM"}]}]}
